Earlier results as cited in Sander's compilation of Henry's law constants.
Each block holds one compound with its values, some of them ahead of it.

Experiment: Henry solubility constant Hcp at 298.15 K (mol/(m3 Pa))
Details: cited value
[1] = reference: Barcelo and Hennion (1997)
[2] = reference: Burkholder et al. (2015)
[3] = reference: Burkholder et al. (2019)
[4] = reference: Sander et al. (2006)
[5] = reference: Sander et al. (2011)
[6] = reference: Dohnal et al. (2006)
[7] = reference: Fogg and Sangster (2003)
[8] = reference: Murphy et al. (1983b)

Henry solubility constant Hcp (reference: Brockbank (2013)): 0.37
Compound: CCCC(O)CC (stereo not drawn) [3-hexanol]

Henry solubility constant Hcp (reference: Brockbank (2013)): 0.1
Compound: CC(=O)OC1CCCCC1 [cyclohexyl ethanoate]

Compound: ClC1=C(Cl)[C@]2(Cl)[C@@H]3[C@@H]4C[C@@H]([C@H]5O[C@@H]45)[C@@H]3[C@@]1(Cl)C2(Cl)Cl [dieldrin]
Henry solubility constant Hcp [1]: 0.0088

Compound: OCC(O)CO [1,2,3-propanetriol]
Henry solubility constant Hcp [2]: 4.7e+06 | Henry solubility constant Hcp [3]: 4.7e+06

Compound: CNC [dimethylamine]
Henry solubility constant Hcp (reference: Brockbank (2013)): 0.62 | Henry solubility constant Hcp [2]: 0.55 | Henry solubility constant Hcp [3]: 0.55

Henry solubility constant Hcp (reference: Brockbank (2013)): 0.0036
Compound: Cc1ccc(Br)cc1 [1-bromo-4-methylbenzene]

Compound: CCCCN [1-butanamine]
Henry solubility constant Hcp (reference: Brockbank (2013)): 0.54 | Henry solubility constant Hcp [2]: 0.56 | Henry solubility constant Hcp [3]: 0.56

Henry solubility constant Hcp (reference: Brockbank (2013)): 0.0013
Compound: CC(C)S [2-propanethiol]

Henry solubility constant Hcp (reference: Brockbank (2013)): 0.051
Compound: CCCCCCC(=O)CC [3-nonanone]

Compound: Cc1ccc(N)c(C)c1 [2,4-dimethylbenzenamine]
Henry solubility constant Hcp (reference: Brockbank (2013)): 2.8

Compound: O=[O+][O-] [ozone]
Henry solubility constant Hcp (reference: Biń (2005)): 7.6e-05 | Henry solubility constant Hcp [2]: 0.0001 | Henry solubility constant Hcp [3]: 0.0001 | Henry solubility constant Hcp (reference: Perry and Chilton (1973)): 0.00012 | Henry solubility constant Hcp [4]: 0.0001 | Henry solubility constant Hcp [5]: 0.0001 | Henry solubility constant Hcp (reference: Warneck (2003)): 0.00011

Henry solubility constant Hcp (reference: Brockbank (2013)): 0.00021
Compound: C1=C\CCCCCC/1 [cyclooctene]

Henry solubility constant Hcp (reference: Brockbank (2013)): 0.068
Compound: CCCCCC(C)=O [2-heptanone]

Henry solubility constant Hcp (reference: Brockbank (2013)): 2.6e-05
Compound: C[C@@H]1CCCC[C@@H]1C [cis-1,2-dimethylcyclohexane]

Compound: CCCCCCOC(=O)c1ccccc1C(=O)OCCCCCC [dihexyl phthalate]
Henry solubility constant Hcp (reference: Brockbank (2013)): 8.3

Compound: COC(C)=O [methyl ethanoate]
Henry solubility constant Hcp (reference: Brockbank (2013)): 0.085 | Henry solubility constant Hcp [3]: 0.085

Henry solubility constant Hcp (reference: Brockbank (2013)): 6.7e-05
Compound: C1CCCCCC1 [cycloheptane]

Compound: OCl [hypochlorous acid]
Henry solubility constant Hcp [2]: 6.5 | Henry solubility constant Hcp [3]: 6.5 | Henry solubility constant Hcp (reference: Huthwelker et al. (1995)): 6.5 | Henry solubility constant Hcp [4]: 6.5 | Henry solubility constant Hcp [5]: 6.5

Compound: CC(=O)OCC(F)(F)F [2,2,2-trifluoroethyl ethanoate]
Henry solubility constant Hcp [2]: 0.0055 | Henry solubility constant Hcp [3]: 0.0055 | Henry solubility constant Hcp [5]: 0.0055

Compound: CCO [ethanol]
Henry solubility constant Hcp (reference: Brockbank (2013)): 1.8 | Henry solubility constant Hcp [2]: 1.9 | Henry solubility constant Hcp [3]: 1.9 | Henry solubility constant Hcp [6]: 1.8 | Henry solubility constant Hcp (reference: Dubowski (1979)): 1.9 | Henry solubility constant Hcp [7]: 1.7 | Henry solubility constant Hcp (reference: Gaffney and Senum (1984)): 2 | Henry solubility constant Hcp [4]: 2 | Henry solubility constant Hcp [5]: 1.9 | Henry solubility constant Hcp (reference: Schaffer and Daubert (1969)): 1.5 | Henry solubility constant Hcp (reference: Timmermans (1960)): 1.6 | Henry solubility constant Hcp (reference: Warneck (2006)): 1.9

Henry solubility constant Hcp (reference: Brockbank (2013)): 0.005
Compound: CCOC(C)(C)CC [2-ethoxy-2-methylbutane]

Compound: CON(C)C(=O)Nc1ccc(Cl)c(Cl)c1 [linuron]
Henry solubility constant Hcp [1]: 1.8 | Henry solubility constant Hcp (reference: MacBean (2012b)): 5000

Henry solubility constant Hcp (reference: Brockbank (2013)): 1.6
Compound: COC(=O)c1ccccc1O [2-hydroxybenzoic acid methyl ester]

Henry solubility constant Hcp (reference: Brockbank (2013)): 0.033
Compound: CC(=O)OC(C)C [2-propyl ethanoate]

Compound: Clc1ccc(C(c2ccc(Cl)cc2)C(Cl)(Cl)Cl)cc1 [1,1,1-trichloro-2,2-bis-(4-chlorophenyl)-ethane]
Henry solubility constant Hcp [1]: 0.0042

Compound: CCOC=O [ethyl methanoate]
Henry solubility constant Hcp (reference: Brockbank (2013)): 0.033 | Henry solubility constant Hcp [2]: 0.034 | Henry solubility constant Hcp [3]: 0.034 | Henry solubility constant Hcp [5]: 0.034

Compound: CCCCC(CC)COC(=O)c1ccccc1C(=O)OCC(CC)CCCC (stereo not drawn) [bis(2-ethylhexyl)-phthalate]
Henry solubility constant Hcp (reference: Petrasek et al. (1983)): 82

Henry solubility constant Hcp (reference: Clever (1979b)): 4.3e-05
Compound: [Xe] [xenon]

Compound: ClC(Cl)=C(Cl)Cl [tetrachloroethene]
Henry solubility constant Hcp (reference: Brockbank (2013)): 0.00056 | Henry solubility constant Hcp [2]: 0.00055 | Henry solubility constant Hcp [3]: 0.00055 | Henry solubility constant Hcp (reference: Dilling (1977)): 0.00081 | Henry solubility constant Hcp (reference: Dilling et al. (1975)): 0.00081 | Henry solubility constant Hcp [7]: 0.0006 | Henry solubility constant Hcp (reference: Goldstein (1982)): 0.00036

Compound: Cc1cccc(N)c1 [3-methylbenzenamine]
Henry solubility constant Hcp (reference: Brockbank (2013)): 5.6

Compound: Cc1ccc([N+](=O)[O-])cc1 [4-nitrotoluene]
Henry solubility constant Hcp (reference: Brockbank (2013)): 0.89 | Henry solubility constant Hcp (reference: Goldstein (1982)): 0.16

Compound: O=C(O)C(Cl)Cl [dichloroethanoic acid]
Henry solubility constant Hcp [2]: 1200 | Henry solubility constant Hcp [3]: 1200 | Henry solubility constant Hcp [5]: 1200

Compound: FC(F)OC(F)(F)C(F)Cl (stereo not drawn) [2-chloro-1,1,2-trifluoroethyl difluoromethyl ether]
Henry solubility constant Hcp [7]: 0.0003

Compound: CCCCCl [1-chlorobutane]
Henry solubility constant Hcp (reference: Brockbank (2013)): 0.00056

Compound: O=C1C2CC=CCC2C(=O)N1SC(Cl)(Cl)Cl (stereo not drawn) [captan]
Henry solubility constant Hcp [1]: 0.016

Compound: CCCO [1-propanol]
Henry solubility constant Hcp (reference: Brockbank (2013)): 1.5 | Henry solubility constant Hcp [2]: 1.4 | Henry solubility constant Hcp [3]: 1.4 | Henry solubility constant Hcp [6]: 1.4 | Henry solubility constant Hcp [7]: 1.4 | Henry solubility constant Hcp [4]: 1.3 | Henry solubility constant Hcp [5]: 1.4

Henry solubility constant Hcp (reference: Brockbank (2013)): 0.058
Compound: CCC(=O)OC [methyl propanoate]

Henry solubility constant Hcp (reference: Brockbank (2013)): 2.3e-06
Compound: CCCCCCCCC [nonane]

Henry solubility constant Hcp (reference: Brockbank (2013)): 0.35
Compound: CCCCCCN [1-hexanamine]

Henry solubility constant Hcp [7]: 0.0029
Compound: COC(F)(F)C(Cl)Cl [2,2-dichloro-1,1-difluoro-1-methoxyethane]

Henry solubility constant Hcp (reference: Brockbank (2013)): 0.67
Compound: CCCC(C)O (stereo not drawn) [2-pentanol]

Henry solubility constant Hcp (reference: Brockbank (2013)): 0.00018
Compound: CCCCCCCCc1ccccc1 [octylbenzene]

Henry solubility constant Hcp (reference: Brockbank (2013)): 0.00041
Compound: CCCCCCl [1-chloropentane]

Compound: CN(C)C [trimethylamine]
Henry solubility constant Hcp [2]: 0.099 | Henry solubility constant Hcp [3]: 0.099

Compound: ClCC(Cl)(Cl)Cl [1,1,1,2-tetrachloroethane]
Henry solubility constant Hcp (reference: Brockbank (2013)): 0.0042 | Henry solubility constant Hcp [2]: 0.0042 | Henry solubility constant Hcp [3]: 0.0042

Henry solubility constant Hcp (reference: Brockbank (2013)): 94
Compound: c1ccc2c(c1)[nH]c1ccccc12 [carbazole]

Compound: Clc1ccccc1-c1ccccc1Cl [2,2'-dichlorobiphenyl]
Henry solubility constant Hcp [8]: 0.045

Compound: CCCCOCCOC(C)=O [2-butoxyethyl ethanoate]
Henry solubility constant Hcp (reference: Brockbank (2013)): 1.8

Compound: CCOC(=O)CCl [ethyl chloroethanoate]
Henry solubility constant Hcp (reference: Brockbank (2013)): 0.26

Compound: CCOP(=S)(OCC)OP(=S)(OCC)OCC [sulfotep]
Henry solubility constant Hcp [1]: 0.0099

Compound: O=COCC(F)(F)F [2,2,2-trifluoroethyl methanoate]
Henry solubility constant Hcp [2]: 0.0054 | Henry solubility constant Hcp [3]: 0.0054 | Henry solubility constant Hcp [5]: 0.0054

Henry solubility constant Hcp (reference: Brockbank (2013)): 0.066
Compound: CCCCC=O [pentanal]

Compound: ClC1=C(Cl)[C@]2(Cl)C3C(Cl)C(Cl)CC3[C@@]1(Cl)C2(Cl)Cl (stereo partly drawn) [chlordane]
Henry solubility constant Hcp [1]: 0.0011

Compound: CCOC(=O)CC(SP(=S)(OC)OC)C(=O)OCC (stereo not drawn) [malathion]
Henry solubility constant Hcp [1]: 4.3 | Henry solubility constant Hcp (reference: Brockbank (2013)): 20

Henry solubility constant Hcp (reference: Brockbank (2013)): 0.0029
Compound: CCCOCCC [dipropyl ether]

Henry solubility constant Hcp (reference: Brockbank (2013)): 3e-05
Compound: C=CCCC [1-pentene]

Compound: N#CCCCC#N [pentanedinitrile]
Henry solubility constant Hcp (reference: Plyasunov et al. (2006)): 780

Henry solubility constant Hcp (reference: Brockbank (2013)): 1.2
Compound: O=C1CCCC1 [cyclopentanone]

Compound: COC(=O)OC [carbonic acid, dimethyl ester]
Henry solubility constant Hcp (reference: Brockbank (2013)): 0.15 | Henry solubility constant Hcp [2]: 0.16 | Henry solubility constant Hcp [3]: 0.16

Compound: ClC1=C(Cl)C(Cl)(Cl)C(Cl)=C1Cl [hexachlorocyclopentadiene]
Henry solubility constant Hcp (reference: Goldstein (1982)): 0.0006

Compound: CCCCOC(=O)c1ccccc1C(=O)OCCCC [dibutyl phthalate]
Henry solubility constant Hcp (reference: Brockbank (2013)): 11 | Henry solubility constant Hcp (reference: McCarty (1980)): 0.16

Compound: ClC1C(Cl)C(Cl)C(Cl)C(Cl)C1Cl (stereo not drawn) [β-1,2,3,4,5,6-hexachlorocyclohexane]
Henry solubility constant Hcp (reference: Xiao et al. (2004)): 27

Compound: CCCCc1ccccc1 [butylbenzene]
Henry solubility constant Hcp (reference: Brockbank (2013)): 0.00071

Henry solubility constant Hcp (reference: Brockbank (2013)): 0.13
Compound: CCCCNCCCC [dibutylamine]

Henry solubility constant Hcp (reference: MacBean (2012b)): 110
Compound: CC(C)OC(=O)N[C@@H](C(=O)N[C@H](C)c1nc2ccc(F)cc2s1)C(C)C [benthiavalicarb isopropyl]

Compound: C=CC(C)=O [3-buten-2-one]
Henry solubility constant Hcp [2]: 0.4 | Henry solubility constant Hcp [3]: 0.4

Compound: Clc1ccc(-c2ccc(Cl)cc2)cc1 [4,4'-dichlorobiphenyl]
Henry solubility constant Hcp [8]: 0.033

Henry solubility constant Hcp (reference: Brockbank (2013)): 0.013
Compound: CC(C)CC(=O)CC(C)C [2,6-dimethyl-4-heptanone]

Compound: COC(=O)C(F)(F)F [trifluoroethanoic acid, methyl ester]
Henry solubility constant Hcp [2]: 0.0011 | Henry solubility constant Hcp [3]: 0.0011 | Henry solubility constant Hcp [5]: 0.0011

Compound: ClCC(Cl)Cl [1,1,2-trichloroethane]
Henry solubility constant Hcp (reference: Barr and Newsham (1987)): 0.011 | Henry solubility constant Hcp (reference: Brockbank (2013)): 0.011 | Henry solubility constant Hcp [2]: 0.011 | Henry solubility constant Hcp [3]: 0.011 | Henry solubility constant Hcp [7]: 0.012 | Henry solubility constant Hcp (reference: Goldstein (1982)): 0.012

Henry solubility constant Hcp (reference: Régimbal and Mozurkewich (1997)): 57
Compound: [O-]O [hydroperoxy radical]

Compound: O=C(O)CF [fluoroethanoic acid]
Henry solubility constant Hcp [2]: 800 | Henry solubility constant Hcp [3]: 800 | Henry solubility constant Hcp [5]: 800

Compound: CCOO [ethyl hydroperoxide]
Henry solubility constant Hcp (reference: Brockbank (2013)): 3.3 | Henry solubility constant Hcp [2]: 3.3 | Henry solubility constant Hcp [3]: 3.3 | Henry solubility constant Hcp [5]: 3.3
